Source: PMC12356538, “Targeting the SARS-CoV‑2 RNA Translation Initiation Element SL1 by Molecules of Low Molecular Weight” (Journal of the American Chemical Society, 2025)
Where “and” joins values, the source holds several entries; their conditions need not be identical. Identical values can stand only once. Entries after “also recorded” stand apart in the source; their conditions may differ. Like-named read-outs stand apart in the source and are kept apart here.

Key:
[1] = tested on: SL1 Δbulge-Nanoluciferase mRNA; type: biochemical, SARS-CoV-2
[2] = tested on: β-Globin-Nanoluciferase mRNA; assay: Cell-free translation assay in rabbit reticulocyte lysate, Nanoluciferase readout; type: biochemical; conditions: 0.2 μM mRNA, 2 μM compound
[3] = tested on: SL1 RNA labeled with 2AP at position A27; assay: 2-Aminopurine fluorescence binding assay; set-up: species or system SARS-CoV-2; conditions: 0.5 μM 2AP-SL1, compound 0-400 μM, 25 °C, pH 6.2
[4] = tested on: SL1 Δbulge RNA; type: binding, SARS-CoV-2
[5] = tested on: SL1 (wt)-Nanoluciferase mRNA; type: biochemical, SARS-CoV-2
[6] = tested on: SL1 RNA; assay: RNA-detected NMR binding site mapping (2D-1H,1H-TOCSY and 1D-1H); set-up: species or system SARS-CoV-2; conditions: for 1H,1H CSPs [ppm] C15H5-H6 / 1H,1H CSPs [ppm] C16H5-H6 / 1H,1H CSPs [ppm] C19H5-H6 / 1H,1H CSPs [ppm] C20H5-H6 / 1H,1H CSPs [ppm] C21H5-H6 / 1H,1H CSPs [ppm] C28H5-H6 / 1H,1H CSPs [ppm] C32H5-H6 / 1H,1H CSPs [ppm] C33H5-H6 / 1H,1H CSPs [ppm] C34H5-H6 / 1H,1H CSPs [ppm] U9H5-H6 / 1H,1H CSPs [ppm] U10H5-H6 / 1H,1H CSPs [ppm] U11H5-H6 / 1H,1H CSPs [ppm] U13H5-H6 / 1H,1H CSPs [ppm] U17H5-H6 / 1H,1H CSPs [ppm] U18H5-H6 / 1H,1H CSPs [ppm] U25H5-H6: 2D TOCSY, RNA 150 μM, compound 1 mM, 298 K; for 1H CSPs [ppm] A12H2 / 1H CSPs [ppm] A29H2: RNA-detected 1D-1H
[7] = biological target: SL1 wt RNA; assay: NMR-based KD estimation, ligand-detected 1D-1H titration; type: binding, SARS-CoV-2
[8] = tested on: SARS-CoV-2 SL1 RNA (SL1 wt); type: binding; conditions: for wLOGSY factor / T2 reduction [%] / CSP [Hz]: 10 μM SL1 wt, 200 μM ligand; for wLOGSY factor / T2 reduction [%]: pH 6.2; for T2 reduction [%]: CPMG 100 vs 5 ms; for Rank: FBS ranking from summed ranks of CSP, wLOGSY and T2 results; for Rank / Normalized FBS score / 1 - normalized FBS score / FBS score: SL1 wt; for 1 - normalized FBS score: 0 lowest, 1 highest score; for FBS score: radar chart values; for CSP [Hz]: ligand 1H CSP, [RNA]:[ligand] 1:20, pH 6.2
[9] = pH 6.2
[10] = Suppl. Table 7, ligand constant at 100, SL1 wt RNA concentration 0-250, read-out: KDest
[11] = ligand 100 μM, SL1 RNA 0 to 200 or 250 μM, 298 K, 600 MHz, pH 6.2, read-out: KD est

| Compound | Normalized inhibition rate (normalized activity score) [5] | SL1 wt inhibition rate [%] [5] | time-resolved SL1-driven translation, in words [5] | 1H,1H CSPs [ppm] C16H5-H6 [6] | 1H,1H CSPs [ppm] C19H5-H6 [6] | 1H,1H CSPs [ppm] C20H5-H6 [6] | 1H,1H CSPs [ppm] C21H5-H6 [6] | 1H,1H CSPs [ppm] C28H5-H6 [6] | 1H,1H CSPs [ppm] C33H5-H6 [6] | 1H,1H CSPs [ppm] C34H5-H6 [6] | 1H,1H CSPs [ppm] U9H5-H6 [6] | 1H,1H CSPs [ppm] U10H5-H6 [6] | 1H,1H CSPs [ppm] U11H5-H6 [6] | 1H,1H CSPs [ppm] U13H5-H6 [6] | 1H,1H CSPs [ppm] U17H5-H6 [6] | 1H,1H CSPs [ppm] U18H5-H6 [6] | 1H,1H CSPs [ppm] U25H5-H6 [6] | 1H CSPs [ppm] A12H2 [6] | Kd [7, 10] | wLOGSY factor [8] | further results |
| --- | --- | --- | --- | --- | --- | --- | --- | --- | --- | --- | --- | --- | --- | --- | --- | --- | --- | --- | --- | --- | --- |
| CNC(=O)Nc1nc2c(O)cc(O)cc2s1 [A.13] | 1.00 | 49.50% and ~50% | most pronounced delay and suppression | 0.0032 ppm | 0.0022 ppm | 0.0022 ppm | 0.0045 ppm | 0.0278 ppm | 0.0032 ppm | 0.0087 ppm | 0.0067 ppm | 0.0112 ppm | 0.0702 ppm | 0.0209 ppm | 0.0051 ppm | 0.0022 ppm | 0.0020 ppm | 0.0630 ppm | 312 µM | 0.33 | inhibition rate [1]: ~0.5%; inhibition rate ([2]; relative to untreated control): ~10%; affinity trend compared to lead A [3]: increased affinity; FBS result (CSP, wLOGSY, T2 reduction) in words [4]: severe line broadening; signal disappearance; also recorded: complete loss of ligand peaks; effect on translation of SL1 wt mRNA, in words [5]: significant and selective inhibition; also recorded: highest inhibition efficiency; also recorded: greatest translation inhibition; 1H,1H CSPs [ppm] C15H5-H6 [6]: 0.0030 ppm; 1H,1H CSPs [ppm] C32H5-H6 [6]: 0.0082 ppm; 1H CSPs [ppm] A29H2 [6]: 0.0190 ppm; T2 reduction [%] [8]: 100.00%; Rank [8]: 25; Normalized FBS score [8]: 0.68; 1 - normalized FBS score [8]: 0.32; FBS score [8]: 25; CSP [Hz] [8]: 4.11 Hz |
| COc1ccc2nc(NC(=O)CN(C)C)sc2c1 [A.2] | 0.73 | 36.23% | more subtle temporal effects | 0.0166 ppm | 0.0190 ppm | 0.0143 ppm | 0.0230 ppm | 0.0813 ppm | 0.0085 ppm | 0.0081 ppm | 0.0247 ppm | 0.0231 ppm | 0.0462 ppm | 0.0110 ppm | 0.0143 ppm | 0.0071 ppm | 0.0361 ppm | 0.1420 ppm | 144 µM | 0.72 | effect on translation of SL1 Δbulge mRNA, in words [1]: increased translation efficiency; also recorded: about half as pronounced as that for SL1 wt; effect on translation of β-globin mRNA, in words [2]: increased translation efficiency; also recorded: boost; affinity trend compared to lead A [3]: increased affinity; CSP [Hz] [4]: 5.52 Hz; Normalized abs. CSP SL1 wt - CSP SL1 Δbulge (normalized selectivity score) [4]: 1.00; Rank [4]: 5; T2 reduction [%] [4]: 67.46%; abs. CSP SL1 wt - CSP SL1 Δbulge [4]: 6.71; wLOGSY factor [4]: 0.00; effect on translation of SL1 wt mRNA, in words [5]: significant and selective inhibition; also recorded: highest inhibition efficiency; solubility, in words [9]: increased solubility; binding site / selectivity for the bulge from CSP and LB mapping, in words [6]: bound the bulge less selectively; 1H CSPs [ppm] A29H2 [6]: 0.0190 ppm; Kd [7, 11]: 144 ± 31 µM; T2 reduction [%] [8]: 79.26%; Rank [8]: 30; Normalized FBS score [8]: 0.81; 1 - normalized FBS score [8]: 0.19; FBS score [8]: 30; CSP [Hz] [8]: 12.23 Hz |
| CNC(=O)Nc1nc2ccc(OC)cc2s1 [A] | -0.03 | -1.66% | more subtle temporal effects | 0.0050 ppm | 0.0050 ppm | 0.0050 ppm | 0.0095 ppm | 0.0502 ppm | 0.0042 ppm | 0.0054 ppm | 0.0117 ppm | 0.0179 ppm | 0.0824 ppm | 0.0242 ppm | 0.0100 ppm | 0.0010 ppm | 0.0160 ppm | 0.0041 ppm | 136 µM | 0.78 | effect on translation of SL1 Δbulge mRNA, in words [1]: increased translation efficiency; effect on translation of β-globin mRNA, in words [2]: increased translation efficiency; CSP [Hz] [4]: 0.00 Hz; FBS result (CSP, wLOGSY, T2 reduction) in words [4]: no effects; Normalized abs. CSP SL1 wt - CSP SL1 Δbulge (normalized selectivity score) [4]: 0.59; abs. CSP SL1 wt - CSP SL1 Δbulge [4]: 3.96; solubility, in words [9]: solubility issues; binding site / selectivity for the bulge from CSP and LB mapping, in words [6]: binds selectively to the bulge; 1H,1H CSPs [ppm] C15H5-H6 [6]: 0.0081 ppm; 1H,1H CSPs [ppm] C32H5-H6 [6]: 0.0124 ppm; Kd [7, 11]: 136 ± 34 µM; T2 reduction [%] [8]: 66.95%; Rank [8]: 37; Normalized FBS score [8]: 1.00; 1 - normalized FBS score [8]: 0.00; FBS score [8]: 37; CSP [Hz] [8]: 3.96 Hz |
